According to patent US11779628B2, “Use of cell-permeable peptide inhibitors of the JNK signal transduction pathway for the treatment of various diseases” (Xigen Inflammation Ltd., priority 2014, dated 2023):
Read-outs that look alike come from different tables or passages of the source.

Key:
[1] = Phase I pharmacokinetics after single iv infusion; conditions: human, in vivo
Description: The primary objective of the study was to assess the safety and tolerability of XG-102 following intravenous (iv) infusion of single escalating doses of XG-102 to healthy male volunteers. The secondary objective of the study was to assess the pharmacokinetics of XG-102 following iv infusion of single escalating doses of XG-102 to healthy male volunteers. Doses were administered as a 60 minute iv infusion. For control purposes, placebo iv infusion was administered to control subjects. This was a single-centre, randomized, double blind, placebo controlled, ascending single dose, sequential group study. […] Screening was performed in the 3-week period prior to dosing. Dosing occurred on Day 0 for each subject. […] Data for all subjects were included in the safety analyses; data for all subjects who received XG-102 were included in the pharmacokinetic analyses.

rabbits = test: Ocular MTD studies, sub-conjunctival administration; format: in vivo, rabbit
Source text: (§1) Despite technical advances in ocular surgery, the physical trauma of this procedure continues to induce post-operative ocular inflammation warranting treatment. In ocular tissue, arachidonic acid is metabolized by cyclooxygenase (COX) to prostaglandins (PG) which are the most important lipid-derived mediators of inflammation. Surgical trauma causes a trigger of the arachidonic acid cascade which in turn generates PGs by activation of COX-1 and COX-2. Phospholipids in the cell membrane are the substrate for phospholipase A to generate arachidonic acid from which a family of chemically distinct PGs and leukotriens are produced. The ‘golden standard’ for the treatment of ocular inflammation are topical corticosteroids and/or Non-Steroidal Anti-inflammatory Drugs (NSAIDs). Side effects reported with (short-term) corticosteroid use include cataract formation, increased Intra Ocular Pressure (IOP), increased susceptibility to viral infections and retardation of the corneal epithelial and stromal wound healing. In addition, prolonged treatment with corticosteroids have been known to induce systemic side effects such as glucose impairment, hypertension, development of glaucoma, visual acuity defects, loss of visual field, and posterior subcapsular cataract formation. […]

rats = test: as above; format: in vivo, rat
Source text: as §1

[2] = test system: Hep G2 human hepatocarcinoma tumor; test: Orthotopic HEP G2 human liver carcinoma, dose/response; format: in vivo, mice; conditions: 0.1, 1, 5 mg/kg/inj IV, Q4Dx4
Description: The objective of this study was to determine the antitumor activity of XG-102 (dose/response) in the model of SWISS Nude mice bearing the orthotopic Hep G2 human hepatocarcinoma tumor.
For XG-102 administration XG-102 was prepared at the concentration of 1 mg/ml with sterile water (WFI, Aguettant, France). Lt was then cliluted at the concentrations of 0.2 and 0.02 mg/ml with sterile water. All these steps were performed within one hour prior to injection to mice. XG-102 was injected at 0.1, 1 and 5 mg/kg/inj. Four injections were performed, each separated by four days (Q4Dx4).
Twenty four hours before tumor induction, 32 female SWISS Nude mice were irradiated with a γ-source (2.5 Gy, Co^60, INRA, Dijon, France). […]
Mice were monitored every day throughout the study for behaviour and survival. The body weight was monitored twice a week for all mice throughout the study. […]
At D67, 3 mice randomly selected per group during randomization were sacrificed for observation of macroscopic development. […] Histological sections were analyzed by a pathologist expert to determine the metastatic invasion in liver.
For the body weight analysis body weight curves of mice were drawn. Mean body weight change (MBWC): Average weight change of treated animals in grams (weight at day X minus weight at D10) was calculated.
Efficacy parameters were expressed as a percent (T/C %). […]

db/db mice = conditions: mouse, in vivo
Source text: i) Animals • A total of twenty (20) male db/db mice (8 weeks old) were obtained from Charles River (Germany). Upon arrival, animals were group housed (n=6-7/group) and offered regular rodent chow (Altromin standard #1324 chow; C. Petersen, Ringsted, Denmark) and water ad libitum unless otherwise stated. The mice were housed under a 12:12 L/D cycle (lights on at 4:00 and lights off at 16:00) and in temperature and humidity controlled rooms.
ii) Groups and Randomization • On day −4, mice were randomized according to blood glucose level (fasted; blood glucose measured on Biosen S line analyzer (EKF diagnostic, Germany) to participate in one of the following drug treatment groups (n=6): • 1) Vehicle control, S.C. (physiological saline) • 2) XG-102 (SEQ ID NO: 11); 1 mg/kg; s.c. • 3) XG-102 (SEQ ID NO: 11); 10 mg/kg; s.c • All doses listed were calculated for the free-base. […] All compounds were administered sub-cutaneously (s.c.) in a volume of 3 ml/kg. The formulation instructions for vehicle control and XG-102 (SEQ ID NO: 11) were as follows: • First, XG-102 (SEQ ID NO: 11) was dissolved in the vehicle. […]
i) Blood Glucose • Blood glucose was measured from 7 hour fasted animals 6 hours post dosing by collection of 10 μl blood samples from the tail-vein in hematocrite tubes and subsequent analysis on a Biosen s-line analyzer (EKF-diagnostic; Germany).

CC(C)C[C@@H](NC(=O)[C@@H](Cc1ccccc1)NC(=O)[C@H]1CCCN1C(=O)[C@@H](CCC(N)=O)NC(=O)[C@H](NC(=O)[C@H]1CCCN1C(=O)[C@@H](CCCNC(=N)N)NC(=O)[C@@H](CO)NC(=O)[C@@H](CCC(N)=O)NC(=O)[C@H](N)CC(=O)O)C(C)C)C(=O)N[C@H](CC(N)=O)C(=O)N[C@H](CC(C)C)C(=O)N[C@@H](C(=O)N[C@@H](C(=O)N1CCC[C@@H]1C(=O)N[C@H](CCCNC(=N)N)C(=O)N[C@H](CCCCN)C(=O)N1CCC[C@@H]1C(=O)N[C@H](CCCNC(=N)N)C(=O)N1CCC[C@@H]1C(=O)N1CCC[C@@H]1C(=O)N[C@H](CCCNC(=N)N)C(=O)N[C@H](CCCNC(=N)N)C(=O)N[C@H](CCCNC(=N)N)C(=O)N[C@H](CCC(N)=O)C(=O)N[C@H](CCCNC(=N)N)C(=O)N[C@H](CCCNC(=N)N)C(=O)N[C@H](CCCCN)C(=O)N[C@H](CCCCN)C(=O)N[C@H](CCCNC(=N)N)C(=O)NCC(=O)O)[C@H](C)O)[C@H](C)O [XG-102]
dose proportionality of AUC0-last [1]: increases in a more than linear proportion with dose in the tested dose range
MRT ([1]; 80 ug/kg): 1.02 (14.7) h
No Observed Adverse Effect Level (NOAEL) (rabbits): ~600 µg
No Observed Adverse Effect Level (NOAEL) (rats): around 20 μg
body weight [2]: no apparent differences occurred for the body weight
reaction of subcutaneous tissue at injection (db/db mice; 1 mg/kg): mild nodular fibrosis was observed
reaction of subcutaneous tissue at injection (db/db mice; 10 mg/kg): nodular fibrosis was observed in the subcutaneous tissue
